This is an account of results in ChEMBL document CHEMBL3797106, “Potent and Selective Agonists of Sphingosine 1-Phosphate 1 (S1P1): Discovery and SAR of a Novel Isoxazole Based Series” (J Med Chem, 2016).

Some results are limits rather than exact numbers.

The subject of one data set is Canis familiaris. Briefly: Ratio of Cmax to Cmin in dog at 1 mg/kg, po. Conditions: in vivo. Type of data set: ADME, organism-based, Canis lupus familiaris.
A short description of data set [1]: Clearance in rat at 2 mg/kg, iv. The format is ADME, organism-based. Conditions: in vivo.
A short description of data set [2]: Cmax in rat at 5 mg/kg, po. Type of data set: ADME, organism-based. Set-up: dose 5 mg/kg, route oral. Conditions: in vivo.
For a further data set, the species on record is Homo sapiens. As to the kind of experiment: Inhibition of calcium channel (unknown origin) at 10 uM by patch clamp method relative to control. For orientation: In patch-clamp work, channel activity is measured electrically.
Another data set deals with Salmonella typhi. Briefly: Mutagenicity in Salmonella typhi by Ames test. Particulars: salmonella enterica subsp. enterica […]. The format is toxicity, organism-based.
The target in data set [3] is Sphingosine 1-phosphate receptor 1 (Homo sapiens, UniProt P21453). Briefly: Induction of internalization of C-terminal GFP-fused human S1P1 receptor expressed in CHO […] assessed as remaining receptor level in cell membrane at 4.6 nM preincubated for 50 mins followed by compound washout measured at 16 hrs relative to control. Type of data set: cell-based.

Data set [4] is described as follows: Tmax in rat at 5 mg/kg, po. Particulars: in vivo. Type of data set: ADME, organism-based.
The nature of data set [5]: Tmax in cynomolgus monkey at 5 mg/kg, po. The format is ADME, organism-based, Macaca fascicularis. Particulars: in vivo.
In the next data set the target is Cytochrome P450 2D6 (Homo sapiens, UniProt P10635). As to the kind of experiment: Inhibition of CYP2D6 (unknown origin). Type of data set: ADME.
The next data set has as its system Rattus norvegicus. As to the kind of experiment: Reduction of blood lymphocyte level in Lewis rat at 1 mg/kg, po measured at 4 hrs by hematology analyzer relative to vehicle-treated control. The format is functional. Set-up: scale not given: the % may be the effect or the level left.

Chain of Sphingosine 1-phosphate receptor 1 (P21453 whole entry, the tested form may be a part): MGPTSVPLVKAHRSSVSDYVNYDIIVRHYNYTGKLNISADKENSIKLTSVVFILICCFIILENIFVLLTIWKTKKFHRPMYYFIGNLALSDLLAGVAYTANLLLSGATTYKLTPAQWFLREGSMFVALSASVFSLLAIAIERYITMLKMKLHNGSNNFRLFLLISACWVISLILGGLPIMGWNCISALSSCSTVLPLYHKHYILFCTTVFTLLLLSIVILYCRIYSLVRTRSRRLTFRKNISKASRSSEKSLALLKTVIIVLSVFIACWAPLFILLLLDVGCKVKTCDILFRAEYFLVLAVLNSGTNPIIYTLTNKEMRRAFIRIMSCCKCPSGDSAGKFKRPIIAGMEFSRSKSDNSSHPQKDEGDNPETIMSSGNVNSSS
Chain of Cytochrome P450 2D6 (P10635 whole entry): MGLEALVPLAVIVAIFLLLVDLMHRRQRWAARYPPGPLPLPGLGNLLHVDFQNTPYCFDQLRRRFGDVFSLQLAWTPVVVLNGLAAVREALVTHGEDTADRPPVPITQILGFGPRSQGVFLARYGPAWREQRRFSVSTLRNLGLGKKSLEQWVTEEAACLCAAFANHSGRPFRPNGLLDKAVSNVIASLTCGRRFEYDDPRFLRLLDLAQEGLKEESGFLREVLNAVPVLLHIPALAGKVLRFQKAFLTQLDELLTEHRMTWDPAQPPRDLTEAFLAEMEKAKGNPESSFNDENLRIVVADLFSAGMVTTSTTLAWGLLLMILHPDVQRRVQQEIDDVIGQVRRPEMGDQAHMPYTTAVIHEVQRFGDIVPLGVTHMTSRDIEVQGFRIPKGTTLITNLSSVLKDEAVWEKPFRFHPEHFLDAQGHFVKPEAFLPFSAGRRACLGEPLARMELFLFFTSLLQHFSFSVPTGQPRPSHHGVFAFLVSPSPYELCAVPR

On to `O=C(O)C1CN(Cc2ccc(-c3noc(-c4onc(-c5ccccc5)c4C(F)(F)F)n3)cc2)C1`, for which the Ratio in the data set on Canis familiaris is reported as 9. For the same compound, the clearance – broadly, the volume of plasma or blood freed of the substance per unit of time – in [1] turned out to be 1.7 mL/min/kg. Further, the Cmax (in general, the highest concentration seen after dosing) in data set [2] worked out at 3.9 µM. Also, the inhibition (as a rule, the share of the control response that was lost under treatment) in the data set listed under Homo sapiens came out at 12%. Moreover, the Activity result with Salmonella typhi was “Non-toxic”; in data set [3] it was 40%; with Rattus norvegicus it was 78%. Besides, the Tmax (usually the time at which the peak concentration occurs) is 3.3 h in data set [4] and 1 h in data set [5]. For the same compound, on Cytochrome P450 2D6, the IC50 (usually the concentration that inhibits the measured activity by half) was more than 40 µM.
